In ChEMBL document CHEMBL1155663, “A new major triterpene saponin from the roots of Cucurbita foetidissima” (J Nat Prod, 2000) one finds Activity data, which are given here for one compound.

The subject of this test is HT-29. In words: Potentiation of cisplatin-induced cytotoxicity against human HT29 cells. The test is classed as functional, cell-based.

Molecules are shown by their SMILES. The source made the active and inactive calls. The rule behind the calls is not given here.

`C[C@@H]1O[C@@H](O[C@@H]2[C@@H](OC(=O)[C@]34CCC(C)(C)C[C@@H]3C3=CC[C@@H]5[C@@]6(C)CC[C@H](O[C@@H]7O[C@H](C(=O)O)[C@@H](O)[C@H](O)[C@H]7O)C(C)(C)[C@@H]6CC[C@@]5(C)[C@]3(C)C[C@H]4O)OC[C@@H](O)[C@H]2O)[C@H](O)[C@H](O[C@H]2OC[C@H](O)[C@@H](O[C@H]3O[C@@H](CO)[C@H](O)[C@@H](O)[C@@H]3O)[C@@H]2O)[C@H]1O[C@@H]1OC[C@@H](O)[C@H](O)[C@H]1O`: the result was inactive.
